How the values were obtained:
[1] = system: intraepidermal nerve fibers (BTZ-induced CIPN); assay: IENF density and histopathology of plantar glabrous skin; type: in vivo, Wistar rat; conditions: for IENF DENSITY, Difference in rank sum (Dunn's Multiple Comparison Test): week 8
Protocol: (§1) Wistar female rats (n=52) (Envigo, Correzzano, Italy) at 10-11 weeks of age were utilized. The study was divided into 2 phases of 4 weeks each. […] Body weight was measured periodically during phase 1 from baseline (day 1) to day 28. At baseline and conclusion of phase 1 (day 28), nerve conduction velocity (NCV) was performed on caudal and sciatic nerves and Dynamic Aesthesiometer Test (DAT) measured mechanical threshold (MT) of the hind paw. […] Body weight was measured periodically from baseline (day 28) to day 56 (termination). NCV and MT were measured in all 4 groups at baseline and on day 35 and 56. […] At termination, sciatic nerves were obtained for β-tubulin polymerization and skin samples were procured for intraepidermal nerve fiber (IENF) density and histopathology.
At day 56, animals were euthanized by CO2 inhalation and tissue samples were procured from 4 rats per group. Right sciatic nerve was frozen in liquid nitrogen for β-tubulin polymerization assay and plantar glabrous skin samples were collected for IENF density.
Plantar glabrous skin samples (5 mm) from hind paws were fixed in 2% PLP (paraformaldehyde-lysine-sodium periodate) for 24 hours at 4° C. and cryoprotected overnight. Samples were serially cut with a cryostat to yield 20 μm sections. Three sections from each footpad were randomly selected and immunostained with rabbit polyclonal anti-protein gene product 9.5 (PGP 9.5; GeneTex, Irvine, Calif., USA) in combination with biotinylated anti-rabbit IgG and Vector SG substrate kit peroxidase (Vector Laboratories, Burlingame, Calif.) using a free-floating protocol. A blinded observer counted total number of immune-positive IENF in each section under light microscopy at high magnification with a microscope video camera. Individual fibers were counted that crossed dermal-epidermal interface. Secondary branches within epidermis were excluded. Length of epidermis was measured to generate linear density of IENF/millimeter as described elsewhere (Canta et al., 2016 Neurobiol Aging 45:136-148).

[2] = system: caudal nerves (BTZ-induced CIPN); assay: CIPN-reversal study: caudal nerve conduction velocity; type: in vivo, Wistar rat
Protocol: as §1
NCV (meters/second) was obtained from caudal and sciatic nerves with an electromyography tool (Myto 2, ABN Neuro, Firenze, Italy). Caudal NCV was measured by placement of recording needle electrodes distally in the tail with stimulating needle electrodes 5 cm and 10 cm proximal to recording point. Peak latencies of potentials recorded at the 2 sites after nerve stimulation were determined and NCV was calculated. Sciatic NCV was determined by placement of needle recording electrodes near ankle bone and stimulating electrodes close to thigh. Peak latencies were recorded similar to caudal nerve and NCV was calculated. NCV was performed under standard conditions in a temperature-controlled facility (22±2° C.) and rats were under isoflurane anesthesia with monitoring of vital signs.

[3] = system: RPMI-8226 human myeloma xenografts; assay: In vivo BTZ and combination (BTZ and CX-8998) anti-tumor (interference) study, tumor volume; set-up: species or system athymic nude mouse
Description: Care and husbandry of mice complied with USDA (U.S. Department of Agriculture) Animal Welfare Act and START IACUC (Institutional Animal Care and Use Committee) regulations. The protocol was reviewed and approved by START IACUC. Mice were individually housed in Sealsafe® Plus ventilated cages (Techniplast, West Chester, Pa., USA) and fed with Teklad 2919 (Envigo, Somerset, N.J., USA), irradiated, 19% protein, 9% fat and 4% fiber mouse chow. Mice were maintained under controlled environmental conditions (22+/−2° C. temperature, 55+/−10% relative humidity and 12-hour light/dark cycle (7 a.m.-7 p.m.).
South Texas Accelerated Research Therapeutics (START) (San Antonio, Tex., USA) conducted this study. […] The 30 mg/kg dose was tolerated in preclinical safety studies and anticipated to result in exposures in excess of the therapeutic range for 28 days. Body weight, TV and animal observations were collected twice per week to day 18 (termination) for vehicle control mice and twice per week to day 28 (termination) for each of the other 3 groups. Mean±SD body weight and TV were analyzed with Kruskal-Wallis and Dunn multiple comparison test at day 18 and with Mann Whitney test at day 28 with statistical significance at p<0.05.

[4] = system: hind paw mechanical allodynia (BTZ-induced CIPN); assay: CIPN-reversal study: Dynamic Aesthesiometer Test, mechanical threshold; type: in vivo, Wistar rat
Protocol: as §1
MT was assessed with the DAT device (Model 37450, Ugo Basile Biological Instruments, Comerio, Italy). After acclimation, a servo-controlled pointed metallic filament (0.5 mm diameter) was placed on plantar surface of the hind paw and exerted a progressive punctate pressure up to 50 grams within 20 seconds. The pressure elicited a voluntary hind paw withdrawal response that was recorded and represented MT index. MT was collected alternatively on each side every 2 minutes on 3 occasions to yield a mean value. Mean MT values represented maximum pressure (grams) tolerated by each rat. Exposure of each animal to mechanical stimulus was limited to 30 seconds.

[5] = BTZ vs BTZ+ CX-8998 3 mg/kg, P > 0.05 ns
[6] = BTZ vs BTZ+ CX-8998 10 mg/kg, P > 0.05 ns
[7] = BTZ+ CX-8998 3 mg/kg vs BTZ+ CX-8998 10 mg/kg, P > 0.05 ns
[8] = BTZ+ CX-8998 3 mg/kg vs BTZ+ CX-8998 30 mg/kg, P > 0.05 ns
[9] = CTRL vs BTZ+ CX-8998 30 mg/kg, P > 0.05 ns
[10] = BTZ vs BTZ+ CX-8998 30 mg/kg, P > 0.05 ns
[11] = BTZ+ CX-8998 10 mg/kg vs BTZ+ CX-8998 30 mg/kg, P > 0.05 ns
[12] = CTRL vs BTZ+ CX-8998 3 mg/kg, P > 0.05 ns
[13] = CTRL vs BTZ+ CX-8998 10 mg/kg, P > 0.05 ns
[14] = CTRL vs BTZ+ CX-8998 10 mg/kg, P < 0.05 *

In the case of `CC(C)c1ccc(CC(=O)N[C@H](C)c2ccc(OCC(F)(F)F)cn2)cc1` [CX-8998, (R)-2-(4-Isopropylphenyl)-N-(1-(5-(2,2,2-Trifluoroethoxy)pyridin-2-yl)ethyl)acetamide], the “IENF DENSITY, Difference in rank sum (Dunn's Multiple Comparison Test)” value (from here on “IENF DENSITY, Difference in rank sum”) [1, 5] is reported as −10.93, the “IENF DENSITY, Difference in rank sum” value [1, 6] is reported as −0.04167 and the “IENF DENSITY, Difference in rank sum” value ([1]; BTZ vs BTZ+ CX-8998 30 mg/kg, P < 0.05 *) is reported as −20.54. The “IENF DENSITY, Difference in rank sum” value [1, 7] was 10.89, the “IENF DENSITY, Difference in rank sum” value [1, 8] was −9.611 and the “IENF DENSITY, Difference in rank sum” value ([1]; BTZ+ CX-8998 10 mg/kg vs BTZ+ CX-8998 30 mg/kg, P < 0.01 **) was −20.50. The “IENF DENSITY, Difference in rank sum” value ([1]; CTRL vs BTZ+ CX-8998 3 mg/kg, P < 0.05 *) was 18.06, the “IENF DENSITY, Difference in rank sum” value ([1]; CTRL vs BTZ+ CX-8998 10 mg/kg, P < 0.001 ***) was 28.94 and the “IENF DENSITY, Difference in rank sum” value [1, 9] was 8.444. The “NCV OF CAUDAL NERVE (5 weeks), Difference in rank sum (Dunn's Multiple Comparison Test)” value [2, 5] was −11.21, the “NCV OF CAUDAL NERVE (8 weeks), Difference in rank sum (Dunn's Multiple Comparison Test)” value [2, 5] was −11.55 and the “NCV OF CAUDAL NERVE (8 weeks), Difference in rank sum (Dunn's Multiple Comparison Test)” value ([2]; BTZ vs BTZ+ CX-8998 10 mg/kg, P < 0.01 **) was −22.36. For the same molecule, the “NCV OF CAUDAL NERVE (5 weeks), Difference in rank sum (Dunn's Multiple Comparison Test)” value [2, 6] was −4.625, the “NCV OF CAUDAL NERVE (8 weeks), Difference in rank sum (Dunn's Multiple Comparison Test)” value ([2]; BTZ vs BTZ+ CX-8998 30 mg/kg, P < 0.001 ***) was −30.42 and the “NCV OF CAUDAL NERVE (5 weeks), Difference in rank sum (Dunn's Multiple Comparison Test)” value [2, 10] was −11.04. For the same molecule, the “NCV OF CAUDAL NERVE (5 weeks), Difference in rank sum (Dunn's Multiple Comparison Test)” value [2, 7] was 6.583, the “NCV OF CAUDAL NERVE (8 weeks), Difference in rank sum (Dunn's Multiple Comparison Test)” value [2, 7] was −10.82 and the “NCV OF CAUDAL NERVE (8 weeks), Difference in rank sum (Dunn's Multiple Comparison Test)” value ([2]; BTZ+ CX-8998 3 mg/kg vs BTZ+ CX-8998 30 mg/kg, P < 0.05 *) was −18.87. For the same molecule, the “NCV OF CAUDAL NERVE (5 weeks), Difference in rank sum (Dunn's Multiple Comparison Test)” value [2, 8] was 0.1667, the “NCV OF CAUDAL NERVE (5 weeks), Difference in rank sum (Dunn's Multiple Comparison Test)” value [2, 11] was −6.417 and the “NCV OF CAUDAL NERVE (8 weeks), Difference in rank sum (Dunn's Multiple Comparison Test)” value [2, 11] was −8.053. For the same molecule, the “NCV OF CAUDAL NERVE (8 weeks), Difference in rank sum (Dunn's Multiple Comparison Test)” value ([2]; CTRL vs BTZ+ CX-8998 3 mg/kg, P < 0.01 **) was 25.45, the “NCV OF CAUDAL NERVE (5 weeks), Difference in rank sum (Dunn's Multiple Comparison Test)” value [2, 12] was 4.542 and the “NCV OF CAUDAL NERVE (5 weeks), Difference in rank sum (Dunn's Multiple Comparison Test)” value [2, 13] was 11.13. The “NCV OF CAUDAL NERVE (8 weeks), Difference in rank sum (Dunn's Multiple Comparison Test)” value [2, 13] was 14.64, the “NCV OF CAUDAL NERVE (5 weeks), Difference in rank sum (Dunn's Multiple Comparison Test)” value [2, 9] was 4.708 and the “NCV OF CAUDAL NERVE (8 weeks), Difference in rank sum (Dunn's Multiple Comparison Test)” value [2, 9] was 6.583. For the same molecule, the “TUMOR GROWTH DAY 18, Difference in rank sum (Dunn's Multiple Comparison Test)” value (“TUMOR GROWTH DAY 18, Difference” below) ([3]; BTZ vs BTZ+ CX-8998, P > 0.05 ns) was −3.000, the “TUMOR GROWTH DAY 18, Difference” value ([3]; Vehicle Control vs BTZ+ cx-8998, P < 0.05 *) was 10.13 and the “DYNAMIC TEST 5 WEEKS, Difference in rank sum (Dunn's Multiple Comparison Test)” value (shortened to “DYNAMIC TEST 5 WEEKS, Difference”) [4, 5] was −13.99. The “DYNAMIC TEST 8 WEEKS, Difference in rank sum (Dunn's Multiple Comparison Test)” value (“DYNAMIC TEST 8 WEEKS, Difference” below) [4, 5] was −15.63, the “DYNAMIC TEST 5 WEEKS, Difference” value [4, 6] was −0.7411 and the “DYNAMIC TEST 8 WEEKS, Difference” value [4, 6] was −6.500. For the same molecule, the “DYNAMIC TEST 5 WEEKS, Difference” value [4, 10] was −6.679, the “DYNAMIC TEST 8 WEEKS, Difference” value [4, 10] was −9.688 and the “DYNAMIC TEST 8 WEEKS, Difference” value [4, 7] was 9.125. The “DYNAMIC TEST 5 WEEKS, Difference” value [4, 8] was 7.313, the “DYNAMIC TEST 8 WEEKS, Difference” value [4, 8] was 5.938 and the “DYNAMIC TEST 5 WEEKS, Difference” value [4, 11] was −5.938. For the same molecule, the “DYNAMIC TEST 8 WEEKS, Difference” value [4, 11] was −3.188, the “DYNAMIC TEST 5 WEEKS, Difference” value [4, 12] was 3.250 and the “DYNAMIC TEST 8 WEEKS, Difference” value [4, 12] was 7.563. The “DYNAMIC TEST 5 WEEKS, Difference” value [4, 14] was 16.50, the “DYNAMIC TEST 8 WEEKS, Difference” value [4, 14] was 16.69 and the “DYNAMIC TEST 5 WEEKS, Difference” value [4, 9] was 10.56. For the same molecule, the “DYNAMIC TEST 8 WEEKS, Difference” value [4, 9] was 13.50.

`CC(C)C[C@H](NC(=O)[C@H](Cc1ccccc1)NC(=O)c1cnccn1)B(O)O` [BTZ, bortezomib, reference compound] was tested, and the “IENF density (number of fibers per millimeter)” value ([1]; BTZ alone vs control, p<0.001) was “significantly decreased”, the “IENF DENSITY, Difference in rank sum” value ([1]; CTRL vs BTZ, P < 0.001 ***) was 28.99 and the “caudal NCV” value ([2]; BTZ vs control at weeks 4, 5 and 8 (p<0.01, p<0.05, p<0.001)) was “significantly reduced”. The “NCV OF CAUDAL NERVE (8 weeks), Difference in rank sum (Dunn's Multiple Comparison Test)” value ([2]; CTRL vs BTZ, P < 0.001 ***) was 37.00, the “NCV OF CAUDAL NERVE (5 weeks), Difference in rank sum (Dunn's Multiple Comparison Test)” value ([2]; CTRL vs BTZ, P < 0.05 *) was 15.75 and the “TUMOR GROWTH DAY 18, Difference” value ([3]; Vehicle Control vs BTZ, P < 0.001 ***) was 13.13. The “tumor volume (TV)” value ([3]; day 18, BTZ alone 1 mg/kg vs vehicle control, p<0.001) was “significantly reduced TV”, the “tumor volume (TV) trend” value ([3]; day 18 through day 28, BTZ alone) was “tended to increase” and the “DYNAMIC TEST 8 WEEKS, Difference” value ([4]; CTRL vs BTZ, P < 0.001 ***) was 23.19. The “DYNAMIC TEST 5 WEEKS, Difference” value ([4]; CTRL vs BTZ, P < 0.05 *) was 17.24 and the “mechanical threshold (MT) in hind paws” value ([4]; week 4, BTZ vs control, p<0.0001) was “significantly reduced”.

— patent US20220354834A1, “METHODS AND MATERIALS FOR TREATING NEUROTOXICITY” (Cavion, Inc., priority 2019, published 2022)
